Tests used:
K-Ras G12C = K-Ras G12C (Homo sapiens (Human), UniProt P01116+P62937, G12C); experiment: Ras-Raf (BRAF RBD) disruption / FRET / MOA assay, KRAS G12C; format: biochemical; details: KRAS G12C; Ras-Raf disruption/FRET/MOA assay; read-out: IC50* KRAS G12C FRET data
Method in brief: (§1)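 Compounds, top final concentration 30 μM in 10-point 3-fold series, incubated 3 hours at 25° C with nucleotide-loaded Ras, cyclophilin A and BRAF RBD.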

KRAS G12V = KRAS G12V (Homo sapiens (Human), UniProt P01116+P62937, G12V); experiment: Ras-Raf (BRAF RBD) disruption / FRET / MOA assay, KRAS G12V; format: biochemical; details: read-out: IC50* KRAS G12V FRET data
Sequence of KRAS G12V (P01116-2 other isoform, or with tags, fused parts or gaps G12V): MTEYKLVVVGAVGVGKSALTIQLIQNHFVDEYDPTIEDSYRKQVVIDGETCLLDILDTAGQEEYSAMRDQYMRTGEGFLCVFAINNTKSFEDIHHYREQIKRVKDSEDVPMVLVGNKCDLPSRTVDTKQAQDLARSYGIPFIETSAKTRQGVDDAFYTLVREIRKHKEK
Sequence of KRAS G12V (P62937 whole entry): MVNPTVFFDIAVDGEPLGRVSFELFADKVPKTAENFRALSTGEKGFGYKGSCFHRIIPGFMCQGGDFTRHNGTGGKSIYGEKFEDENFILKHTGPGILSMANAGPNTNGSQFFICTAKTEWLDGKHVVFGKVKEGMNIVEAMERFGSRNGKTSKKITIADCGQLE
Method in brief: as §1

NRAS G12C = NRAS G12C (Homo sapiens (Human), UniProt P01111+P62937, G12C); experiment: Ras-Raf (BRAF RBD) disruption / FRET / MOA assay, NRAS G12C; format: biochemical; details: read-out: IC50* NRAS G12C FRET data
Sequence of NRAS G12C (P01111 whole entry G12C): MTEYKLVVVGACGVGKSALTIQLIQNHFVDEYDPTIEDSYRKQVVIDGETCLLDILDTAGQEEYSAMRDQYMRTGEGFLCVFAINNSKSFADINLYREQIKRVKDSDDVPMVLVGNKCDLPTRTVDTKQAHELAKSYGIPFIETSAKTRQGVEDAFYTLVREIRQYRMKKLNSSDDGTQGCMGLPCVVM
Sequence of NRAS G12C (P62937 whole entry): as the sequence (P62937 whole entry) above
Method in brief: as §1

[1] = tested on: NCI-H358 cells (K-Ras G12C); experiment: Potency assay: pERK in NCI-H358 cells; format: cell-based, human; details: Homo sapiens, NCI-H358; H358 KRAS G12C; read-out: pERK EC50
Method in brief: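 pERK decrease read by AlphaLISA SureFire p-ERK1/2 or In-Cell Western after 4 h compound exposure at 37 °C, 5% CO2.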

NCI-H358 (K-Ras G12C) = experiment: CellTiter-Glo cell viability assay, NCI-H358; format: cell-based, human; details: Homo sapiens, NCI-H358, 120 h, NCI-H358, 5-day treatment; class symbols; read-out: Additional H358 Cell Viability assay data (K-Ras G12C, IC50)
Method in brief: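 Cells seeded, compound added directly, 5-day exposure. Plates to RT ~30 min, CellTiter-Glo luminescence read. Normalized to DMSO avg (x100); 4-parameter logistic fit.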

K-Ras G13C = K-Ras G13C (Homo sapiens (Human), UniProt P01116+P62937, G13C); experiment: Ras-Raf (BRAF RBD) disruption / FRET / MOA assay, KRAS G13C; format: biochemical; details: KRAS G13C; Ras-Raf disruption/FRET/MOA assay; read-out: IC50* KRAS G13C FRET data
Sequence of K-Ras G13C (P01116-2 other isoform, or with tags, fused parts or gaps G13C): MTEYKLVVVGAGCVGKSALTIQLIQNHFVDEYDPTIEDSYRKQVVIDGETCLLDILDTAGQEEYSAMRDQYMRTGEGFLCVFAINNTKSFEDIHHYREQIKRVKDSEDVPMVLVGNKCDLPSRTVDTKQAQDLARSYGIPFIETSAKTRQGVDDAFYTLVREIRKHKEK
Sequence of K-Ras G13C (P62937 whole entry): as the sequence (P62937 whole entry) above
Method in brief: as §1

KRAS G13D = KRAS G13D (Homo sapiens (Human), UniProt P01116+P62937, G13D); experiment: Ras-Raf (BRAF RBD) disruption / FRET / MOA assay, KRAS G13D; format: biochemical; details: read-out: IC50* KRAS G13D FRET data
Sequence of KRAS G13D (P01116-2 other isoform, or with tags, fused parts or gaps G13D): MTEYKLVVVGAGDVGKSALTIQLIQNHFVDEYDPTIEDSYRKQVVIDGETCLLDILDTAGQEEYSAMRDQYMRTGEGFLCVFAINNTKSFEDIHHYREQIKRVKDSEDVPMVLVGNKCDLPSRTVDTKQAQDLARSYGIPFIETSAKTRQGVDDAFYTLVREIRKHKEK
Sequence of KRAS G13D (P62937 whole entry): as the sequence (P62937 whole entry) above
Method in brief: as §1

KRAS WT = KRAS WT (Homo sapiens (Human), UniProt P01116+P62937); experiment: Ras-Raf (BRAF RBD) disruption / FRET / MOA assay, KRAS WT; format: biochemical; details: read-out: IC50* KRAS WT FRET data
Sequence of KRAS WT (P01116-2 other isoform, or with tags, fused parts or gaps): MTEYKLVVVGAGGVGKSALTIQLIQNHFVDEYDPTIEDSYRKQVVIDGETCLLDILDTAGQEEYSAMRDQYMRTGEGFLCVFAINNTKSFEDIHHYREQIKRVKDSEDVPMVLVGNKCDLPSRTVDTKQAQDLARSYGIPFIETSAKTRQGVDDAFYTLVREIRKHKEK
Sequence of KRAS WT (P62937 whole entry): as the sequence (P62937 whole entry) above
Method in brief: as §1

KRAS G12S = KRAS G12S (Homo sapiens (Human), UniProt P01116+P62937, G12S); experiment: Ras-Raf (BRAF RBD) disruption / FRET / MOA assay, KRAS G12S; format: biochemical; details: Ras-Raf disruption/FRET/MOA assay; class symbols; read-out: KRAS G12S FRET data IC50
Sequence of KRAS G12S (P01116-2 other isoform, or with tags, fused parts or gaps G12S): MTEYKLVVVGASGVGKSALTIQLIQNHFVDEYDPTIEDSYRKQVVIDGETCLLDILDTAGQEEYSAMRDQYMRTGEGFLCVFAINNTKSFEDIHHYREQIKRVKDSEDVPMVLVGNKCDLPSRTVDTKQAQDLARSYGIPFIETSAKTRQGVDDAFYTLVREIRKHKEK
Sequence of KRAS G12S (P62937 whole entry): as the sequence (P62937 whole entry) above
Method in brief: as §1

KRAS G12D = KRAS G12D (Homo sapiens (Human), UniProt P01116+P62937, G12D); experiment: Ras-Raf (BRAF RBD) disruption / FRET / MOA assay, KRAS G12D; format: biochemical; details: Ras-Raf disruption/FRET/MOA assay; class symbols; read-out: KRAS G12D FRET data IC50
Sequence of KRAS G12D (P01116-2 other isoform, or with tags, fused parts or gaps G12D): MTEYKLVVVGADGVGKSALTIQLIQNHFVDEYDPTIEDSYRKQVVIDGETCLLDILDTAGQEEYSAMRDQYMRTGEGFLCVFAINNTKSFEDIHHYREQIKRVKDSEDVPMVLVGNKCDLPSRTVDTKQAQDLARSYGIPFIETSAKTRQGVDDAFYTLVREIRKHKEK
Sequence of KRAS G12D (P62937 whole entry): as the sequence (P62937 whole entry) above
Method in brief: as §1

Sequence of K-Ras G12C (P01116-2 other isoform, or with tags, fused parts or gaps G12C): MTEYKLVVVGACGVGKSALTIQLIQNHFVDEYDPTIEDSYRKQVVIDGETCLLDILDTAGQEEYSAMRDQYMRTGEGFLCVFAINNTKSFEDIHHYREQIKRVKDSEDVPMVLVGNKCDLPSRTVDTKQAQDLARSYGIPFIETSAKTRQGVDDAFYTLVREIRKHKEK
Sequence of K-Ras G12C (P62937 whole entry): as the sequence (P62937 whole entry) above

Row | Compound | IC50 (K-Ras G12C) | IC50 (KRAS G12V) | IC50 (NRAS G12C) | EC50 [1] | IC50 (NCI-H358 (K-Ras G12C)) | IC50 (K-Ras G13C) | IC50 (KRAS G13D) | IC50 (KRAS WT) | IC50 (KRAS G12S) | IC50 (KRAS G12D)
1 | CCn1c(-c2cccnc2[C@H](C)OC)c2c3cc(ccc31)-c1cc(O)cc(c1)C[C@H](NC(=O)[C@H](C(C)C)N(C)C(=O)N1CCN(C(=O)/C=C/CN(C)C)CC1)C(=O)N1CCC[C@H](N1)C(=O)OCC(C)(C)C2 (atropisomer, axis not shown) [Example A263] | 10 to 100 nM | 100 to 1000 nM | 10 to 100 nM | < 5000 nM | 100 to 1000 nM | 10 to 100 nM | 10 to 100 nM | 10 to 100 nM | 100 to 1000 nM | 100 to 1000 nM
2 | CCn1c(-c2cccnc2[C@H](C)OC)c2c3cc(ccc31)-c1cc(O)cc(c1)C[C@H](NC(=O)[C@H](C(C)C)N(C)C(=O)N1CCCN(C(=O)/C=C/CN(C)C)CC1)C(=O)N1CCC[C@H](N1)C(=O)OCC(C)(C)C2 (atropisomer, axis not shown) [Example A264] | 10 to 100 nM | 10 to 100 nM | 10 to 100 nM | < 5000 nM | 10 to 100 nM | 10 to 100 nM | 10 to 100 nM | 10 to 100 nM | 10 to 100 nM | 10 to 100 nM
3 | C=CC(=O)N1CCCN(C(=O)N(C)[C@H](C(=O)N[C@H]2Cc3cc(O)cc(c3)-c3ccc4c(c3)c(c(-c3cccnc3[C@H](C)OC)n4CC)CC(C)(C)COC(=O)[C@@H]3CCCN(N3)C2=O)C(C)C)CC1 (atropisomer, axis not shown) [Example A265] | 10 to 100 nM | 10 to 100 nM | 10 to 100 nM | < 5000 nM | 10 to 100 nM | 10 to 100 nM | 10 to 100 nM | 10 to 100 nM | 10 to 100 nM | 10 to 100 nM
4 | CCn1c(-c2cccnc2[C@H](C)OC)c2c3cc(ccc31)-c1cc(O)cc(c1)C[C@H](NC(=O)[C@H](C(C)C)N1CCC3(CCN(C(=O)/C=C/CN(C)C)CC3)C1=O)C(=O)N1CCC[C@H](N1)C(=O)OCC(C)(C)C2 (atropisomer, axis not shown) [Example A267] | 10 to 100 nM | 100 to 1000 nM | 10 to 100 nM | < 5000 nM | 10 to 100 nM | 10 to 100 nM | 10 to 100 nM | 100 to 1000 nM | 100 to 1000 nM | 1000 to 10000 nM
5 | CCn1c(-c2cccnc2[C@H](C)OC)c2c3cc(ccc31)-c1cc(O)cc(c1)C[C@H](NC(=O)[C@H](C(C)C)N1CC[C@]3(CCN(C(=O)/C=C/CN(C)C)C3)C1=O)C(=O)N1CCC[C@H](N1)C(=O)OCC(C)(C)C2 (atropisomer, axis not shown) [Example A268] | < 10 nM | 10 to 100 nM | < 10 nM | < 5000 nM | 10 to 100 nM | 10 to 100 nM | 10 to 100 nM | 10 to 100 nM | 10 to 100 nM | 10 to 100 nM
6 | CCn1c(-c2cccnc2[C@H](C)OC)c2c3cc(ccc31)-c1cc(O)cc(c1)C[C@H](NC(=O)[C@H](C(C)C)N1CC[C@@]3(CCN(C(=O)/C=C/CN(C)C)C3)C1=O)C(=O)N1CCC[C@H](N1)C(=O)OCC(C)(C)C2 (atropisomer, axis not shown) [Example A269] | 10 to 100 nM | 100 to 1000 nM | 10 to 100 nM | < 5000 nM | 10 to 100 nM | 100 to 1000 nM | 100 to 1000 nM | 100 to 1000 nM | 100 to 1000 nM | 100 to 1000 nM
7 | CCn1c(-c2cccnc2[C@H](C)OC)c2c3cc(ccc31)-c1cc(O)cc(c1)C[C@H](NC(=O)[C@H](C(C)C)N1CCC3(CN(C(=O)/C=C/CN(C)C)C3)C1=O)C(=O)N1CCC[C@H](N1)C(=O)OCC(C)(C)C2 (atropisomer, axis not shown) [Example A270] | < 10 nM | 100 to 1000 nM | < 10 nM | < 5000 nM | 10 to 100 nM | < 10 nM | 10 to 100 nM | 10 to 100 nM | 10 to 100 nM | 100 to 1000 nM
8 | C/C=C/S(=O)(=O)N1CC[C@H](C(=O)N(C)[C@H](C(=O)N[C@H]2Cc3cc(O)cc(c3)-c3ccc4c(c3)c(c(-c3cccnc3[C@H](C)OC)n4CC)CC(C)(C)COC(=O)[C@@H]3CCCN(N3)C2=O)C(C)C)C1 (atropisomer, axis not shown) [Example A280] | 10 to 100 nM | 100 to 1000 nM | 100 to 1000 nM | < 5000 nM | 10 to 100 nM | 10 to 100 nM | 100 to 1000 nM | 10 to 100 nM | 100 to 1000 nM | 1000 to 10000 nM
9 | CC#CC(=O)N1CC[C@H](C(=O)N(C)[C@H](C(=O)N[C@H]2Cc3nc(ns3)-c3ccc4c(c3)c(c(-c3cccnc3[C@H](C)OC)n4CC)CC(C)(C)COC(=O)[C@@H]3CCCN(N3)C2=O)C(C)C)C1 (atropisomer, axis not shown) [Example A289] | 1000 to 10000 nM | 1000 to 10000 nM | 1000 to 10000 nM | < 5000 nM | 100 to 1000 nM | 1000 to 10000 nM | > 10000 nM | > 10000 nM | > 10000 nM | > 10000 nM
10 | CCn1c(-c2cccnc2[C@H](C)OC)c2c3cc(ccc31)-c1csc(n1)C[C@H](NC(=O)[C@H](C(C)C)N(C)C(=O)[C@H]1CCN(C(=O)C#CC(C)(C)N(C)C)C1)C(=O)N1CCC[C@H](N1)C(=O)OCC(C)(C)C2 (atropisomer, axis not shown) [Example A291] | < 10 nM | 1000 to 10000 nM | 10 to 100 nM | < 5000 nM | < 10 nM | 1000 to 10000 nM | > 10000 nM | 1000 to 10000 nM | 1000 to 10000 nM | > 10000 nM
11 | CCn1c(-c2cccnc2[C@H](C)OC)c2c3cc(ccc31)-c1cc(O)cc(c1)C[C@H](NC(=O)[C@H](C(C)C)N(C)C(=O)[C@H]1CCN(C(=O)C#CC(C)(C)N(C)C)C1)C(=O)N1CCC[C@H](N1)C(=O)OCC(C)(C)C2 (atropisomer, axis not shown) [Example A292] | < 10 nM | 10 to 100 nM | < 10 nM | < 5000 nM | < 10 nM | < 10 nM | 100 to 1000 nM | 100 to 1000 nM | 10 to 100 nM | 100 to 1000 nM
12 | C=CC(=O)N1CCC2(CC1)CCN([C@H](C(=O)N[C@H]1Cc3cc(O)cc(c3)-c3ccc4c(c3)c(c(-c3cccnc3[C@H](C)OC)n4CC)CC(C)(C)COC(=O)[C@@H]3CCCN(N3)C1=O)C(C)C)C2=O (atropisomer, axis not shown) [Example A296] | 10 to 100 nM | 100 to 1000 nM | 10 to 100 nM | < 5000 nM | < 10 nM | 10 to 100 nM | 10 to 100 nM | 10 to 100 nM | 100 to 1000 nM | 1000 to 10000 nM
